From US9340577B2, “HLA binding motifs and peptides and their uses” (priority 1992, dated 2016)
pIC50: −log10 of the molar value. No end group written: not given here.

Legend:
Test in all cases: biochemical
Type in all cases: binding
[1] = target: HLA-A11 (A*1101) (Homo sapiens, UniProt P04439, A114D/D185E/E176A/F33Y/L180Q/S129P/T187R)
[2] = target: A*6801 (Homo sapiens, UniProt P04439, A269V/D185E/E176V/E277Q/E87N/F33Y/G231S/I121M/I166T/I218V/L180W/L300P/L318F/N151K/P208A/P217A/Q86R/R169H/T345S)
[3] = target: A*3301 (Homo sapiens, UniProt P04439, A270S/D185E/E176V/E277Q/E87N/F33T/G231S/H175R/I121M/I218V/I322F/K168Q/K210R/L300P/L318F/M331R/P217A/Q86R/Q94H/R138Q/T323A/T345S/T97I/V358M/Y195H)
[4] = target: A31 (A*3101) (Homo sapiens, UniProt P04439, A270S/D185E/E176V/E277Q/F33T/G231S/G80R/H175R/I121M/I218V/I322F/K168Q/L300P/L318F/M331R/P217A/Q94H/R138Q/T323A/T345S/T97I/V358M)
[5] = target: HLA-A3.2 (A*0301) (Homo sapiens, UniProt P04439)

Row | Sequence | pIC50 [1] | pIC50 [2] | pIC50 [3] | pIC50 [4] | pIC50 [5]
1 | AFDLSHFLK [Peptide 9017.0063] | 7.34 | 6.67 | 5.84 | 6.19 | 6.11
2 | ETNEALELK [Peptide 1556.68] | 7.03 | 5.84 |  | < 4.70 | 4.77
3 | GVMCRHYKR [Peptide 88.0388] | 7.10 | 7.03 |  | 7.43 | 5.54
4 | IQIKRRQQK [Peptide 9012.0207] | 7.70 | < 4.70 | < 4.70 |  | 7.54
5 | QVLHLLKRK [Peptide 88.0365] | 6.49 | 6.10 | 5.73 |  | 5.81
6 | KIDRLIDRIR [Peptide 9017.0249] | < 4.70 | < 4.70 | < 4.70 |  | < 4.70
7 | GVSIEWRLRR [Peptide 9017.0220] | 6.33 | 5.35 |  | 6.72 | 5.11
8 | SQWIRFRCSK [Peptide 88.0147] | 6.89 | 4.93 |  | 6.43 | 6.38
9 | NTMDYTNWK [Peptide 88.0425] | 7.72 | 7.89 |  | < 4.70 | 5.80
10 | FTAFLGAFKK [Peptide 88.0168] | 7.60 | 7.70 |  | < 4.70 | 5.72
11 | MVIEPPKLR [Peptide 88.0360] | 6.57 | 7.89 |  | 6.14 | < 4.70
12 | LTALITPKK [Peptide 9017.0101] | 8.38 | 8.19 |  | 5.35 | 7.39
13 | AFNSSHKGR [Peptide 88.0394] | < 4.70 | < 4.70 |  | 7.26 | < 4.70
14 | GVIVMMLIR [Peptide 88.0376] | 6.36 | 5.56 | 6.67 |  | 5.62
15 | ITVYYGVPVWR [Peptide 1525.06] | 7.12 | 8.27 |  | 7.89 | 6.08
16 | CFYSPALNK [Peptide 1556.43] | 7.13 | 5.84 | 6.91 |  | 6.90

Row | Sequence | pIC50 [1] | pIC50 [2] | pIC50 [3] | pIC50 [4] | pIC50 [5]
17 | KAILGQVVR [Peptide 9017.0092] | 5.27 | 6.80 | < 4.70 |  | 4.81
18 | VSYWGVYYIK [Peptide 1589.25] | 8.52 | 7.62 | 4.94 |  | 6.96
19 | RILSTYLGR [Peptide 9017.0072] | 8.14 | 6.34 |  | 8.80 | 8.12
20 | DSNACAFLK [Peptide 1587.33] | 6.52 | 7.17 | 7.41 |  | 5.85
21 | QLVTQLMPK [Peptide 9012.0211] | 7.10 | 5.65 |  | < 4.70 | 7.06
22 | ALKGLAQSK [Peptide 88.0416] | 5.78 | < 4.70 | < 4.70 |  | 7.19
23 | STAAALYWYK [Peptide 1587.06] | 8.80 | 8.23 |  |  | 8.35
24 | KQFLQGVPK [Peptide 88.0390] | 7.77 |  | 5.29 | 7.36 | 7.49
25 | ATLQDIVLH [Peptide 78.0278] | 6.82 | < 4.70 | < 4.70 |  | 5.35
26 | IVFIEYRKIR [Peptide 9017.0245] | 5.83 |  | 6.51 | 7.92 | 5.36
27 | TLDVYMIMVK [Peptide 9012.0258] | 7.77 | 5.69 | < 4.70 |  | 5.81
28 | MLIRYTCGK [Peptide 88.0377] | 7.85 | 7.82 |  | 5.91 | 7.47
29 | QLALEALNK [Peptide 88.0424] | 6.81 |  | < 4.70 | < 4.70 | 6.78
30 | WTLELLEELK [Peptide 9017.0238] | 5.42 |  | < 4.70 | 4.76 | < 4.70
31 | QTRSLTEILK [Peptide 9012.0217] | 7.02 |  | 4.70 | 5.50 | 6.60
